Key:
[1] = Cytotoxicity against human RD cells incubated for 3 days by neutral red uptake method; type: cell-based, Rhabdomyosarcoma cell; details: time 3 day
[2] = Selectivity index, ratio of CC50 for human RD cells to EC50 for Enterovirus D68 US/KY/14-18953 in human RD cells; type: toxicity, cell-based; details: read-out: Ratio CC50/EC50
[3] = Selectivity index, ratio of CC50 for human RD cells to EC50 for Enterovirus A71 Tainan/4643/1998 in human RD cells; type: toxicity, cell-based; details: read-out: Ratio CC50/EC50
[4] = Selectivity index, ratio of CC50 for african green monkey Vero cells to EC50 for Coxsackievirus B3 in green monkey Vero cells; type: toxicity, cell-based; details: read-out: Ratio CC50/EC50
[5] = Cytotoxicity against Enterovirus A71 Tainan/4643/1998 infected human RD cells incubated for 3 days by neutral red uptake method; type: functional; details: Rhabdomyosarcoma cell, 72 h, time 3 day
[6] = Cytotoxicity against Enterovirus A71 MP4 infected human RD cells incubated for 3 days by neutral red uptake method; type: functional; details: Rhabdomyosarcoma cell, 72 h, time 3 day
[7] = Cytotoxicity against Enterovirus D68 US/MO/14-18947 infected human RD cells incubated for 3 days by neutral red uptake method; type: functional; details: Rhabdomyosarcoma cell, 72 h, pooled result: one value given for 4 cell lines, strains, targets or settings, time 3 day
enterovirus D68 [8] = test: Anti-viral activity against Enterovirus D68 US/MO/14-18947 infected in human RD cells assessed as inhibition of plaque formation incubated for 3 days by plaque assay based crystal violet staining analysis; type: functional, organism-based; details: Enterovirus D, US/MO/14-18947, RD, 72 h
[9] = Cytotoxicity against Enterovirus D68 US/IL/14-18952 infected human RD cells incubated for 3 days by neutral red uptake method; type: functional; details: Rhabdomyosarcoma cell, 72 h, time 3 day
enterovirus D68 [10] = test: Anti-viral activity against Enterovirus D68 US/IL/14-18952 infected in human RD cells assessed as reduction in virus induced cytopathic effect incubated for 3 days by CPE assay; type: functional, organism-based; details: Enterovirus D, US/IL/14-18952, RD, 72 h
enterovirus D68 [11] = test: Anti-viral activity against Enterovirus D68 US/IL/14-18956 infected in human RD cells assessed as reduction in virus induced cytopathic effect incubated for 3 days by CPE assay; type: functional, organism-based; details: Enterovirus D, US/IL/14-18956, RD, 72 h
Enterovirus = test: Anti-viral activity against Enterovirus D68 US/MO/14-18947 infected in human SH-SY5Y cells assessed as inhibition of virus replication by immunofluorescence staining using anti-VPI antibody; type: functional, organism-based; details: D68 US/MO/14-18947, SH-SY5Y
enterovirus D68 [12] = test: Anti-viral activity against Enterovirus D68 US/KY/14-18953 infected in human RD cells assessed as reduction in virus induced cytopathic effect incubated for 3 days by CPE assay; type: functional, organism-based; details: Enterovirus D, US/KY/14-18953, RD, 72 h
Enterovirus A71 [13] = test: Anti-viral activity against Enterovirus A71 Tainan/4643/1998 infected in human RD cells assessed as reduction in virus induced cytopathic effect incubated for 3 days by CPE assay; type: functional, organism-based; details: Enterovirus A, Tainan/4643/1998, RD, 72 h
[14] = Selectivity index, ratio of CC50 for human RD cells to EC50 for Enterovirus A71 USA/CT/2016-19519 infected in human RD cells; type: toxicity, cell-based; details: read-out: Ratio CC50/EC50
enterovirus D68 [15] = test: Anti-viral activity against Enterovirus D68 US/MO/14-18949 infected in human RD cells assessed as reduction in virus induced cytopathic effect incubated for 3 days by CPE assay; type: functional, organism-based; details: Enterovirus D, US/MO/14-18949, RD, 72 h
enterovirus D68 [16] = test: Anti-viral activity against Enterovirus D68 US/MO/14-18947 infected in human RD cells assessed as reduction in virus induced cytopathic effect incubated for 3 days by CPE assay; type: functional, organism-based; details: Enterovirus D, US/MO/14-18947, RD, 72 h
Coxsackievirus B3 = test: Anti-viral activity against Coxsackievirus B3 infected in green monkey Vero cells assessed as reduction in virus induced cytopathic effect incubated for 3 days by CPE assay; type: functional, organism-based; details: Enterovirus B, 72 h
[17] = Selectivity index, ratio of CC50 for human RD cells to EC50 for Enterovirus A71 MP4 in human RD cells; type: toxicity, cell-based; details: read-out: Ratio CC50/EC50
enterovirus D68 [18] = test: Antiviral activity against Enterovirus D68 US/MO/14-18947 harboring 2C protein D183V/D323G drug resistant mutant by CPE assay followed by viral 2C gene sequencing; type: functional, organism-based; details: Enterovirus D
Enterovirus A71 [19] = test: Anti-viral activity against Enterovirus A71 MP4 infected in human RD cells assessed as reduction in virus induced cytopathic effect incubated for 3 days by CPE assay; type: functional, organism-based; details: Enterovirus A, 72 h

Compound: CCn1ncc2c(C(=O)NCCNC)cc(C)nc21
- CC50 at 72 h [1]: > 300 µM
- selectivity ratio [2]: > 5.1

Compound: CC(CN(C)C)NC(=O)c1cc(C(C)C)nc2c1cnn2C(C)C (centres undefined)
- selectivity ratio [3]: > 100
- selectivity ratio [2]: > 100

Compound: Cc1cc(C(=O)NCCN(C)C)c2cnn(C(C)C)c2n1
- selectivity ratio [4]: > 1500
- CC50 [5]: 112 µM

Compound: CC(C)c1cc(C(=O)NCCN(C)C)c2cnn(C(C)C)c2n1
- CC50 [6]: 161 µM
- CC50 [7]: 161 µM
- EC50 (enterovirus D68 [8]): 0.023 µM
- CC50 [9]: 161 µM
- selectivity ratio [4]: > 7500
- EC50 (enterovirus D68 [10]): 0.03 µM
- EC50 (enterovirus D68 [11]): 0.07 µM
- CC50 [5]: 161 µM
- EC50 (Enterovirus): 0.03 µM

Compound: Cc1cc(C(=O)NC2CN(C)C2)c2cnn(C(C)C)c2n1
- selectivity ratio [3]: > 41.1
- selectivity ratio [4]: > 78.9
- selectivity ratio [2]: > 26.5

Compound: CC(CN)NC(=O)c1cc(C2CC2)nc2c1cnn2C(C)C (centres undefined)
- EC50 (enterovirus D68 [12]): 0.3 µM
- CC50 [5]: 113 µM

Compound: CC(C)n1ncc2c(C(=O)NCCN)cc(C3CC3)nc21
- EC50 (Enterovirus A71 [13]): 0.4 µM
- CC50 [5]: 259 µM

Compound: CCn1ncc2c(C(=O)NCCN(C)C)cc(C)nc21
- CC50 at 72 h [1]: > 300 µM
- selectivity ratio [2]: > 16.4

Compound: CC(CN(C)C)NC(=O)c1cc(C2CC2)nc2c1cnn2C(C)C (centres undefined)
- CC50 at 72 h [1]: 72.6 µM
- selectivity ratio [4]: > 7500

Compound: COCCNC(=O)c1cc(C2CC2)nc2c1cnn2C(C)C
- CC50 at 72 h [1]: 178 µM

Compound: Cc1cc(C(=O)NCCN)c2cnn(C(C)C)c2n1
- selectivity ratio [3]: > 429
- selectivity ratio [4]: > 78.9
- selectivity ratio [2]: > 63.8

Compound: CC(CN)NC(=O)c1cc(C(C)C)nc2c1cnn2C(C)C (centres undefined)
- CC50 at 72 h [1]: 118 µM

Compound: Cc1cc(C(=O)NCCN(C)C)c2c(C)nn(C(C)(C)C)c2n1
- selectivity ratio [14]: 89.7
- CC50 [6]: 117 µM
- EC50 (enterovirus D68 [15]): 0.7 µM
- CC50 [7]: 117 µM
- EC50 (enterovirus D68 [8]): 0.13 µM
- EC50 (enterovirus D68 [16]): 0.4 µM
- CC50 [9]: 117 µM
- EC50 (Coxsackievirus B3): 2.1 µM
- selectivity ratio [17]: 58.3
- EC50 (Enterovirus): 0.34 µM

Compound: CNCCNC(=O)c1cc(C)nc2c1cnn2C(C)C
- selectivity ratio [3]: > 600
- selectivity ratio [4]: > 214
- selectivity ratio [2]: > 130

Compound: CC(C)n1ncc2c(C(=O)NCCCN(C)C)cc(C3CC3)nc21
- selectivity ratio [4]: > 500
- CC50 [5]: 74.1 µM

Compound: CNCCNC(=O)c1cc(C2CC2)nc2c1cnn2C(C)C
- CC50 at 72 h [1]: 236 µM
- CC50 [6]: 236 µM
- EC50 (enterovirus D68 [15]): 0.2 µM
- CC50 [7]: 236 µM
- EC50 (enterovirus D68 [8]): 0.077 µM
- EC50 (enterovirus D68 [16]): 0.2 µM
- selectivity ratio [4]: > 500
- EC50 (Coxsackievirus B3): 0.2 µM
- EC50 (enterovirus D68 [10]): 0.2 µM
- EC50 (Enterovirus A71 [13]): 0.2 µM
- EC50 (enterovirus D68 [11]): 0.2 µM
- CC50 [5]: 236 µM
- EC50 (Enterovirus): 0.07 µM

Compound: CC(C)n1ncc2c(C(=O)NCCN)cc(C(C)(C)C)nc21
- CC50 at 72 h [1]: 24.6 µM

Compound: CCN(CC)CCCNC(=O)c1cc(C2CC2)nc2c1cnn2C(C)C
- CC50 [5]: 43.8 µM

Compound: CC(C)n1ncc2c(C(=O)NCCN(C)C)cc(C3CC3)nc21
- CC50 at 72 h [1]: 200 µM
- EC50 (enterovirus D68 [18]): 1.9 µM
- EC50 (enterovirus D68 [15]): 0.1 µM
- CC50 [7]: 200 µM
- EC50 (enterovirus D68 [8]): 0.025 µM
- EC50 (enterovirus D68 [16]): 0.07 µM
- EC50 (Enterovirus A71 [19]): 0.1 µM
- CC50 [9]: 200 µM
- EC50 (enterovirus D68 [10]): 0.04 µM
- CC50 [5]: 200 µM

Compound: CCC(C)n1ncc2c(C(=O)NCCN(C)C)cc(C3CC3)nc21 (centres undefined)
- CC50 [5]: 40.7 µM

Compound: Cc1cc(C(=O)NC2CCN(C)C2)c2cnn(C(C)C)c2n1 (centres undefined)
- selectivity ratio [3]: > 600
- selectivity ratio [4]: > 375
- selectivity ratio [2]: > 167

Compound: CNCCNC(=O)c1cc(C(C)C)nc2c1cnn2C(C)C
- selectivity ratio [3]: > 1000
- selectivity ratio [2]: > 250

Compound: CC(C)n1ncc2c(C(=O)NCCN3CCCC3)cc(C3CC3)nc21
- CC50 at 72 h [1]: 46.5 µM
- EC50 (Enterovirus A71 [13]): 0.2 µM

Compound: CCN(CC)CCNC(=O)c1cc(C2CC2)nc2c1cnn2C(C)C
- CC50 [5]: 89.9 µM

Compound: Cc1nn(C(C)(C)C)c2nc(C3CC3)cc(C(=O)NCCN(C)C)c12
- CC50 at 72 h [1]: 45.2 µM

Compound: CCn1ncc2c(C(=O)NCCN(C)C)cc(C3CC3)nc21
- selectivity ratio [4]: > 167
- CC50 [5]: 263 µM

Compound: CC(C)c1cc(C(=O)NCCN)c2cnn(C(C)C)c2n1
- CC50 at 72 h [1]: 170 µM
- EC50 (enterovirus D68 [12]): 0.6 µM

Compound: CNCCCNC(=O)c1cc(C2CC2)nc2c1cnn2C(C)C
- CC50 at 72 h [1]: 183 µM

Compound: CCCn1ncc2c(C(=O)NCCN(C)C)cc(C3CC3)nc21
- CC50 at 72 h [1]: 57.7 µM
- EC50 (Enterovirus A71 [13]): 2 µM

Compound: CC(C)n1ncc2c(C(=O)Nc3ccccn3)cc(-c3cccs3)nc21
- CC50 at 72 h [1]: > 50 µM
- EC50 (enterovirus D68 [12]): 0.2 µM
- EC50 (enterovirus D68 [16]): 0.1 µM
- selectivity ratio [2]: > 250

Compound: CNCCNC(=O)c1cc(C2CC2)nc2c1c(C)nn2C(C)(C)C
- CC50 [5]: 31.9 µM

Compound: CC(C)c1cc(C(=O)NCCO)c2cnn(C(C)C)c2n1
- CC50 at 72 h [1]: > 100 µM
- selectivity ratio [2]: > 10.2

Compound: CC(C)n1ncc2c(C(=O)NCCN(C)C)cc(C(C)(C)C)nc21
- CC50 at 72 h [1]: 31.4 µM

Compound: CN(C)CCNC(=O)c1cc(C2CC2)nc2c1cnn2C
- CC50 at 72 h [1]: > 300 µM
- selectivity ratio [2]: > 30.6

Compound: CC(C1CC1)n1ncc2c(C(=O)NCCN(C)C)cc(C3CC3)nc21 (centres undefined)
- CC50 [5]: 28.4 µM
